Like-named read-outs stand apart in the source and are kept apart here.
Experiments:
ShHTL7 [1] = biological target: T1, ShHTL7 (Striga hermonthica, UniProt A0A0M3PNA2); conditions: A. thaliana line expressing ShHTL7; cited from earlier work
ShHTL7 [2] = biological target: T1, ShHTL7; conditions: read-out: Kd of ShHTL7 and GR24
ShHTL7 [3] = biological target: T1, ShHTL7; assay: Intrinsic Triton X-100 fluorescence binding assay
Procedure: cDNA fragments, encoding the S. hermonthica ShHTL7 or the mutated version S95C (in which the serine in the active triad was changed to cysteine) flanked with BamHI and XhoI restriction sites, were cloned into the pGEX-6P1 (GE Healthcare) expression vector that enables the expression of GST fusion protein, using the corresponding restriction sites, as shown in Table 1 below. The plasmid obtained was then transformed into BL21 (DE3) E. coli cells. Cells were grown in LB medium at 37° C., and protein expression was induced at OD 0.6 at λ=600 nm by adding 150 μM isopropyl β-D-1-thiogalactopyranoside (IPTG). After induction, cultures were grown at 16° C. overnight under shaking. […]
(§1) Purified proteins (at concentrations of 1 nm to 5 μM) were incubated with 1.54 μM of Triton X-100 for 2 h. Since Triton X-100 has an excitation and emission wavelength of 275 nm and 302 nm, fluorescence was measured at the corresponding wavelengths using SpectraMax i3 (Molecular Devices). […] Data were normalized to the background fluorescence from the protein and values obtained in absence of proteins were subtracted, to determine changes in Triton X-100 fluorescence intensity. Kd values were determined by plotting changes in Triton X-100 fluorescence intensity against the concentration of the protein, using the single binding site model implemented in Graph pad (PRISM 6).

OsD14 [4] = biological target: T2, OsD14 (Oryza sativa subsp. japonica, UniProt Q10QA5); assay: Yoshimulactone Green (YLG) hydrolysis analysis; assay type: biochemical, rice
T2 construct: made in house
T2 sequence (Q10QA5 1-318): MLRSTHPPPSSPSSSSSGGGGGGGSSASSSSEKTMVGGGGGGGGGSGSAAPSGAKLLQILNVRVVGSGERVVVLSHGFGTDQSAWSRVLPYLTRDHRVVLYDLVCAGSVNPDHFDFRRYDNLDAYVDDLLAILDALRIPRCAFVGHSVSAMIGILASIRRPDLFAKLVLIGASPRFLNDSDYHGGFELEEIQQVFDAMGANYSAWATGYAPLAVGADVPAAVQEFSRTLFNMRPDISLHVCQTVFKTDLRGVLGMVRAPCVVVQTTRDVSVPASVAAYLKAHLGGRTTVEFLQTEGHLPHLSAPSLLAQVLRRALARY
Procedure: (§2) For measuring the hydrolysis of YLG in vitro, 10 μg of purified ShHTL7, AtD14 and OsD14 in a reaction buffer (1×PBS) containing 0.1% dimethyl sulfoxide (DMSO) in a total volume of 100 μL in 96-well black plate (Greiner) were used. To measure the fluorescent intensity, SpectraMax i3 (Molecular Devices) with an excitation wavelength of 480 nm and a detection wavelength of 520 nm were used. […] Proteins were pre-incubated with Tritone X-100 for 30 min, followed by incubation with 1 μM YLG (Tokyo Chemical Industry Co. Ltd., product number E1238) for 60 min. Fluorescence values measured in the void control were subtracted from those obtained in the presence of protein. Curves and IC50 values were plotted using Graph pad (PRISM 6) four-parameter logistic curve.

AtD14 [5] = biological target: T3, AtD14 (Arabidopsis thaliana, UniProt Q9SQR3); assay: Intrinsic Triton X-100 fluorescence binding assay; parameters: species or system A. thaliana; conditions: AtD14 concentrations up to 10 μM
T3 construct: made in house
T3 sequence (Q9SQR3 1-267): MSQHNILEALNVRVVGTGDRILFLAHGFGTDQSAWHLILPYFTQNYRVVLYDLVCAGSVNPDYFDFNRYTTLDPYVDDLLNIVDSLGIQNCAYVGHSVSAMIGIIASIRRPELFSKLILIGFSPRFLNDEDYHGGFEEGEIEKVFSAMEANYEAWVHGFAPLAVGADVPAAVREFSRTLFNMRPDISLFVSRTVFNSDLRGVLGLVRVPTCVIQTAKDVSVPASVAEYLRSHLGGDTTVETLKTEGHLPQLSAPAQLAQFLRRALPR
Procedure: as §1, with “Since” for “Purified proteins (at concentrations of 1 nm to 5 μM) were incubated with 1.54 μM of Triton X-100 for 2 h. Since”

ShHTL7 [6] = biological target: T1, ShHTL7; assay: Yoshimulactone Green (YLG) hydrolysis analysis; assay type: biochemical; conditions: for IC50: pre-incubation 30 min, 1 μM YLG 60 min
Procedure: For measuring the hydrolysis of YLG in vitro, 10 μg of purified ShHTL7, AtD14 and OsD14 in a reaction buffer (1×PBS) containing 0.1% dimethyl sulfoxide (DMSO) in a total volume of 100 μL in 96-well black plate (Greiner) were used. To measure the fluorescent intensity, SpectraMax i3 (Molecular Devices) with an excitation wavelength of 480 nm and a detection wavelength of 520 nm were used. Purified proteins were mixed with Triton X-100, using serial dilutions with concentrations ranging from 5 μM to 4.87 nM. Proteins were pre-incubated with Tritone X-100 for 30 min, followed by incubation with 1 μM YLG (Tokyo Chemical Industry Co. Ltd., product number E1238) for 60 min. Fluorescence values measured in the void control were subtracted from those obtained in the presence of protein. Curves and IC50 values were plotted using Graph pad (PRISM 6) four-parameter logistic curve.

ShHTL7 [7] = biological target: T1, ShHTL7; assay: Differential static light scattering (DSLS), aggregation temperature; assay type: binding; conditions: following pre-incubation; varying Triton concentrations
Procedure: The specific aggregation temperature, Tagg, was determined using DSLS on the Stargazer system (Harbinger Biotechnology and Engineering Corporation, Markham, Canada). For this purpose, purified protein (1 mg/mL) was overlaid with mineral oil in a clear bottom 384-well black plate (Corning), and temperature was increased from 20 to 95° C. with a ratio of 1° C./min. A CCD camera was used to detect light scattering every 0.5° C. in the presence or absence of varying concentrations of Triton X-100, unraveling X-100 concentration-dependent changes in aggregation temperature (ShHTL7 ΔTagg). Data were normalized, and ΔTagg was plotted against the Triton X-100 concentration. Resulting data were plotted to determine the change in Tagg of ShHTL7 upon binding to Triton X-100 using Graph pad (PRISM 6).

Striga hermonthica seeds = assay: Striga hermonthica germination assay (GR24-induced); assay type: in vivo
Procedure: Striga hermonthica germination bioassays were carried out using Striga seeds collected from a Sorghum bicolor field in Sudan. About 50-100 dry Striga washed and sterilized seeds were distributed on a 9-mm diameter glass fiber filter paper discs (Sartorius, Goettingen Germany). Discs were then placed in 9-cm diameter petri-dishes (12 discs per petri-dish) on filter paper (Whatman, Maidstone, UK) moistened with 3 mL sterilized water. The petri-dishes were sealed with parafilm, wrapped with aluminum foil and incubated in growth chambers at 30° C. for 10 days for preconditioning. On the 11th day, discs were air dried in laminar flow cabinet and transferred to 9-cm petri-dishes (four discs in each plate), which contained 9-mm diameter glass fiber filter paper rings, moistened with 900 μL sterile MilliQ water. The pre-conditioned Striga seeds were treated with Triton X-100 at concentrations of 15.4 μM (0.001%) and 1.54 μM (0.0001%) along with GR24 at 1 nM, 0.5 nM, 0.25 nM and 0.125 nM respectively. Triton X-100/GR24 mixtures were applied (50 μl per disc) in four replicates. Corresponding volumes of GR24 and sterile MilliQ water were included as positive and negative control, respectively. The petri-dishes were sealed with parafilm, enfolded with aluminum foil and incubated for 48 h at 30° C. The germinated (seeds with radicle emerging through the seed coat) and non-germinated Striga seeds were recorded under a binocular and germination percentage was calculated.

ShHTL7 L143Y mutant = assay: Yoshimulactone Green (YLG) hydrolysis analysis; assay type: biochemical, Striga hermonthica
AtD14 [8] = biological target: T3, AtD14; assay: Yoshimulactone Green (YLG) hydrolysis analysis; assay type: biochemical, A. thaliana
Procedure: as §2

[9] = system: rice seeds cv. Nipponbare; assay type: in vivo; conditions: Striga germination vs rice growth
Procedure: The rice seeds cv. Nipponbare were surface-sterilized using 50 ml (2.5%) sodium hypochlorite with 0.4% of Tween-20 for 15 min. After six subsequent washing steps with sterilized water, the rice seeds were kept in water at 30° C. for overnight imbibition. About 2 ml of dilutions of Triton X-100 at 15.4 μM, 1.54 μM in sterile MilliQ water (control) was added in 24-well plates with six replications. One sterilized rice seed was put in each well and allowed to germinate for 48 h at 30° C. The germinated (radicle emergence) and non-germinated seeds were recorded and germination percentage was calculated. Then same seeds were allowed to grow under light in growth cabinet for another one week. The length of one week old seedlings was measured with a roller and averaged.

OsD14 [10] = biological target: T2, OsD14; assay: Intrinsic Triton X-100 fluorescence binding assay; parameters: species or system rice; conditions: OsD14 concentrations up to 10 μM
Procedure: as §1, with “Since” for “Purified proteins (at concentrations of 1 nm to 5 μM) were incubated with 1.54 μM of Triton X-100 for 2 h. Since”

T1 sequence (A0A0M3PNA2 entry or part of it): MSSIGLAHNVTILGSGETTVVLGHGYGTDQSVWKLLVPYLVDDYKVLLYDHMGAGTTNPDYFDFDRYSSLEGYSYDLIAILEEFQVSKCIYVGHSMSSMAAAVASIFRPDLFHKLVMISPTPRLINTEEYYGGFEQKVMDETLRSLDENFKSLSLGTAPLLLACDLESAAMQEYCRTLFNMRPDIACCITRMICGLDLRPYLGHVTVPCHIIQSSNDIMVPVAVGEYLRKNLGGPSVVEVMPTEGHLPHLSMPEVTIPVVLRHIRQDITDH

For `CC1=C[C@H](O/C=C2/C(=O)O[C@@H]3c4ccccc4C[C@H]23)OC1=O` [GR24], the “GR24 concentration triggering germination” value (ShHTL7 [1]) is listed as “picomolar concentrations” and the Kd (ShHTL7 [2]) is listed as 440 nM.
In the case of “polyethylene glycol tert-octylphenyl ether [Triton X-100]”, the “Affinity of Triton for ShHTL7 relative to GR24” value (ShHTL7 [3]; Kd 31 nM vs Kd 440 nM) is reported as “about ten times higher affinity”, the Kd (ShHTL7 [3]; following pre-incubation 2 h or more, intrinsic Triton fluorescence, read-out: Kd between Triton and ShHTL7) is reported as 31 nM and the “Inhibition of YLG hydrolysis by OsD14” value (OsD14 [4]; 10 μM Triton) is reported as “around 10%”. The “Effect on YLG hydrolysis by OsD14” value (OsD14 [4]; up to 0.5 μM Triton) was “did not affect”, the “Change in Triton fluorescence with AtD14” value (AtD14 [5]) was “No change in Triton fluorescence” and the IC50 (ShHTL7 [6]) was 470 ± 110 nM. For the same compound, the “Aggregation temperature (Tagg) of ShHTL7” value (ShHTL7 [7]) was “aggregation temperature increases in a Triton concentration-dependent manner”, the “Inhibition of GR24-induced S. hermonthica germination” value (Striga hermonthica seeds; 1.54 μM Triton X-100) was “significantly inhibiting” and the “Inhibition of GR24-induced S. hermonthica germination” value (Striga hermonthica seeds; 15.4 μM Triton X-100) was “significantly inhibiting”. For the same compound, the “Inhibition of S. hermonthica germination” value (Striga hermonthica seeds; maximum inhibition) was “up to 90%”, the “Inhibition of YLG hydrolysis by ShHTL7 L143Y mutant” value (ShHTL7 L143Y mutant) was “failed to inhibit” and the “Inhibition of YLG hydrolysis by AtD14” value (AtD14 [8]; 10 μM Triton) was “around 10%”. For the same compound, the “Effect on YLG hydrolysis by AtD14” value (AtD14 [8]; up to 0.5 μM Triton) was “did not affect”, the “Triton concentrations inhibiting S. hermonthica germination relative to concentrations that affect rice growth” value [9] was “five orders of magnitude lower” and the “Change in Triton fluorescence with OsD14” value (OsD14 [10]) was “No change in Triton fluorescence”.
With `CC(C)(C)CC(C)(C)c1ccc(OCC(=O)O)cc1` [2-[4-(2,4,4-trimethylpentan-2-yl)phenoxy]acetic acid] the “Inhibitory effect on ShHTL7 catalyzed hydrolysis of YLG” value (ShHTL7 [6]; in words) was “clear inhibitory effect” and the IC50 (ShHTL7 [6]) was 1500 ± 410 nM.
Compound `CC(C)(C)CC(C)(C)c1ccc(OCCO)cc1` [4-ter-octylphenol Monoethoxylate] has an IC50 (ShHTL7 [6]) of 9200 ± 3200 nM.
Work on `CC(C)(C)CC(C)(C)c1ccc(OCCOCCO)cc1` [4-ter-octylphenol diethoxylate] yielded an IC50 (ShHTL7 [6]) of 7500 ± 2100 nM.
